# Patent publication US3966793A (priority 1964, dated 1976)
# Where two headings read alike, the source gives them in different places.
# Experiments:
# rat [1] = experiment: Spontaneous motor activity in the rat; format: in vivo; settings: Rattus norvegicus, read-out: Spontaneous motor activity, 50% effective dose
# Excerpt: (§1) 6. Spontaneous motor activity in the rat and mouse and provoked motor activity
# (§2) The effect of drugs on voluntary movements of animals can be studied statistically by methods, the details of which will not be discussed here. The mouse, which is an extremely lively animal and moves about a great deal, is particularly suitable for this type of experiment.
# mouse [2] = experiment: Spontaneous motor activity in the mouse; format: in vivo; settings: Mus musculus, read-out: Spontaneous motor activity, 50% effective dose
# Excerpt: as §1, §2
# male rat = experiment: Combativeness (rat); format: in vivo; settings: rat, read-out: Combativeness, 50% effective dose
# Excerpt: It is possible to make a male rat aggressive towards another male rat enclosed in the same cage by passing an electric current of more or less high voltage through the floor of the cage.
# This test, like the preceding one, can obviously give information of clinical value for the treatment of aggression diseases.
# Acute toxicity (M) LD 50 = settings: in vivo, mouse
# mice [3] = experiment: Anti-convulsant activity (anti-pentetrazole) (mice); format: in vivo; settings: mouse, pentetrazole 125 mg./kg. IP, read-out: Anti-pentetrazole, 50% effective dose
# Method: 3. Anti-convulsant activity (anti-pentetrazole) (mice)
# Pentetrazole, injected intraperitoneally in a dose of 125 mg./kg. produces fatal convulsions in 100% of the animals.
# Certain compounds exert a protective action preventing convulsions and permitting survival.
# rats = experiment: Double box conditioning test (R); format: in vivo; settings: rat, PO; read-out: Double box conditioning, 50% effective dose
# Excerpt: The test used consists in educating rats to avoid an electric current passed through the floor of a cage of two compartments when they change compartments. The animal is first warned by a lamp which lights up in the compartment through which the current is passing while the other is in relative darkness.
# This test, which requires more or less daily training at the rate of 50 times for each rat, makes it possible to follow the animals and note their progress. The performances realized at the end of a certain time (3 weeks to 1 month of training) are fairly constant, the percentage of errors made by adequately gifted subjects being less than 10 and very often even zero.
# One would imagine that disturbances produced in these performances which call upon the memory of animals would be of great importance for the choice of a new medicament. A deconditioning drug of sufficient intensity could have the result of partly depriving the patient of the idea of danger and would consequently require special surveillance of the sick persons.
# mouse [4] = experiment: Antistrychnine activity; format: in vivo; settings: po, read-out: Anti-strychnine, 50% effective dose
# Excerpt: 7. Antistrychnine activity
# [5] = Stability in aqueous solution; format: physicochemical; settings: compound A obtained
# mice [6] = experiment: Traction test (mice), myorelaxant activity; format: in vivo; settings: Mus musculus, read-out: Traction, 50% effective dose
# Excerpt: This consists in observing when the treated animals are capable of retrieving a rod grasped by the front paws only. Inability to carry this out was interpreted as a sign of myorelaxant activity.
# central nervous system = experiment: Pharmacodynamic / central nervous system tests taken together; format: in vivo
# Excerpt: A certain number of the compounds described in the present application have been studied with regard to their action on the central nervous system, as psycholeptics, myorrelaxants and tranquilizers. In addition, the acute toxicity has been determined for a number of these compounds.
# It has thereby been possible to make quantitative comparisons of the activity of the different compounds for the different tests employed.
# mice [7] = experiment: Balance test: rotating rod (mice) (Equilibration); format: in vivo; settings: Mus musculus, read-out: Equilibration, 50% effective dose
# Excerpt: 2. Balance test: rotating rod (mice)
# This test consists in observing whether the treated animals are capable of maintaining their balance on a horizontal rod kept in rotation.
# Numerous neuroleptic compounds or tranquilizers disturb the equilibration reflex.
# mice [8] = experiment: Anti-convulsant activity (electric shock) (mice); format: in vivo; settings: Mus musculus, ip, read-out: Electric shock, 50% effective dose
# Excerpt: 4. Anti-convulsant activity (electric shock) (mice)
# The test consists in determining the intensity of the electric current required to produce a fatal shock in a batch of test animals.
# Certain preventively administered compounds effectively protect a certain percentage of animals subjected to an electric current of an intensity which is fatal to untreated animals.
# [9] = Reaction (pH) of aqueous solution; format: physicochemical
# mouse [10] = experiment: Potentiation of narcosis (M); format: in vivo; settings: PO, read-out: Narcotic potentiation, 50% effective dose
# Excerpt: 12. Potentiation of narcosis
# Most psycholeptics are hypnotics in large doses, but many of them can, in small doses, without themselves producing any hypnosis, either prolong the time of sleep obtained with a true hypnotic (for example a barbiturate) or appreciably lower the dose of barbiturate required to obtain sleep.
# mice [11] = experiment: Exploration test (mice); format: in vivo; settings: Mus musculus, ip, read-out: Exploration, 50% effective dose
# Method: 5. Exploration test (mice)
# This extremely simple test consists in placing a mouse at the center of a floor pierced with holes and in noting how many holes the mouse explores in 5 minutes. This test is carried out in a room in which complete silence is observed and which contains no person except the experimenter who is seated and still. It appeals to the curiosity of the animals. The doses of the compounds employed are, however, very small and considerably less than those required to impair movement. This simple test makes it possible to observe whether the compounds assayed produce a more or less pronounced lack of interest in the environment and it gives information which is interesting from the clinical point of view with regard to the treatment of anxiety and restlessness.
# mouse [12] = experiment: Mescaline provoked motor activity (M); format: in vivo; settings: PO, read-out: Mescaline provoked motor activity, 50% effective dose
# Excerpt: as §1, §2
# (§3) Moreover, this spontaneous mobility can be exacerbated by preventive administration to the animals of certain substances such as benzedrine, mescaline and ritaline.
# (§4) The experimental results obtained by these methods give valuable information for clinical purposes with regard to the treatment of ambulatory psychomotor crises.
# mouse [13] = experiment: Morphine excitation (M); format: in vivo; settings: PO, read-out: Morphine excitation, 50% effective dose
# Excerpt: In the mouse, the action of morphine is different but also manifested by marked central excitation.
# rat [14] = experiment: Benzedrine provoked motor activity (R); format: in vivo; settings: PO, read-out: Benzedrine provoked motor activity, 50% effective dose
# Excerpt: as §1, §2, §3, §4
compound,measurement,setting,value
"O=C([O-])C1N=C(c2ccccc2)c2cc(Cl)ccc2NC1=O.[K+] (centres unmarked) [4311 CB, 7-Chloro-2,3-dihydro-2-oxo-5-phenyl-1H-benzo[f]-1,4-diazepine-3-carboxylic acid, potassium salt]",ED50,rat [1]; ip,25 mg/kg
same,ED50,rat [1]; po,50 mg/kg
same,ED50,mouse [2]; ip,25 mg/kg
same,ED50,mouse [2]; po,10 mg/kg
same,ED50,male rat; IP,25 mg/kg
same,ED50,male rat; PO,25 mg/kg
same,LD50,Acute toxicity (M) LD 50; IP,310 mg/kg
same,LD50,Acute toxicity (M) LD 50; IV,220 mg/kg
same,LD50,Acute toxicity (M) LD 50; PO,870 mg/kg
same,LD50,Acute toxicity (M) LD 50; SC,450 mg/kg
same,ED50,mice [3]; IP,2.9 mg/kg
same,ED50,mice [3]; PO,1.65 mg/kg
same,Solubility in water,Solubility,completely soluble in water
same,ED50,rats,10 mg/kg
same,ED50,mouse [4],20 mg/kg
same,Decarboxylation on heating an aqueous solution,[5],decarboxylated within a few minutes
same,ED50,mice [6]; ip,1.75 mg/kg
same,ED50,mice [6]; po,1.35 mg/kg
same,Activity compared with 4306,central nervous system; in vivo,highly active but slightly less so than 4306
same,"Activity, parenteral compared with oral administration",central nervous system; parenteral vs oral,slightly less when administered parenterally than when administered orally
same,ED50,mice [7]; ip,4.5 mg/kg
same,ED50,mice [7]; po,5 mg/kg
same,ED50,mice [8],2.6 mg/kg
same,Reaction / pH of aqueous solution,[9],substantially neutral reaction
same,ED50,mouse [10],2 mg/kg
same,ED50,mice [11],5 mg/kg
same,ED50,mouse [12],20 mg/kg
same,ED50,mouse [13],20 mg/kg
same,ED50,rat [14],50 mg/kg
